Test system: plants
Assay: Test D post-emergence, other plants of Tables D2 and D4
Format: in vivo
Conditions: for damage to plant (100=total damage to plant; 0=no damage to plant), ABUTH / damage to plant (100=total damage to plant; 0=no damage to plant), AMARE / damage to plant (100=total damage to plant; 0=no damage to plant), BIDPI: post-emergence
Description: A formulation containing 50 g/L of the test chemical was prepared by dissolving the active ingredient in a mixture of organic solvents and emulsifier, details of which are provided in the table. This formulation was then mixed with a small, variable amount of acetone to aid dissolution, before addition of a 0.2% v/v aqueous solution of an adjuvant, as the aqueous diluent, to form an aqueous spray solution which contains a predetermined concentration of the active ingredient.
This aqueous spray solution was then sprayed onto plants including maize and wheat that had been seed treated with a herbicide safener, after one day's cultivation (for pre-emergence) or after about 12 days' cultivation (for post-emergence). The plants were grown from seeds sown in standard soil, placed in a glasshouse under controlled conditions (at 24/18° C. or 20/16° C., day/night; 16 h light; 65% humidity). After spray application the plants were then grown in a glasshouse under the same conditions and watered twice daily. After 15 d for post-emergence and 20 DAA for pre-emergence the test was evaluated (100=total damage to plant; 0=no damage to plant).

[1] = "Cereals" Postemergent, Rates 130, evaluated after 15 d
[2] = "Cereals" Postemergent, Rates 250, evaluated after 15 d
[3] = "Cereals" Postemergent, Rates 500, evaluated after 15 d

## CN1CC(c2cc(C(F)(F)F)n(C)n2)C(C(=O)Nc2ccc(F)cc2F)C1=O (racemic) [Compound 6]
[1]
  ALOMY damage rating (100=total damage to plant; 0=no damage to plant): 0
  AVEFA damage rating (100=total damage to plant; 0=no damage to plant): 0
  BEAVA damage rating (100=total damage to plant; 0=no damage to plant): 0
  BROTE damage rating (100=total damage to plant; 0=no damage to plant): 0
  BRSNN damage rating (100=total damage to plant; 0=no damage to plant): 0
  CHEAL damage rating (100=total damage to plant; 0=no damage to plant): 0
  GALAP damage rating (100=total damage to plant; 0=no damage to plant): 0
  HORVW damage rating (100=total damage to plant; 0=no damage to plant): 0
  KCHSC damage rating (100=total damage to plant; 0=no damage to plant): 0
  LOLPE damage rating (100=total damage to plant; 0=no damage to plant): 0
  POAAN damage rating (100=total damage to plant; 0=no damage to plant): 0
  POLCO damage rating (100=total damage to plant; 0=no damage to plant): 0
  STEME damage rating (100=total damage to plant; 0=no damage to plant): 0
  VERPE damage rating (100=total damage to plant; 0=no damage to plant): 0
[2]
  ALOMY damage rating (100=total damage to plant; 0=no damage to plant): 0
  AVEFA damage rating (100=total damage to plant; 0=no damage to plant): 0
  BEAVA damage rating (100=total damage to plant; 0=no damage to plant): 0
  BROTE damage rating (100=total damage to plant; 0=no damage to plant): 0
  BRSNN damage rating (100=total damage to plant; 0=no damage to plant): 0
  CHEAL damage rating (100=total damage to plant; 0=no damage to plant): 0
  GALAP damage rating (100=total damage to plant; 0=no damage to plant): 10
  HORVW damage rating (100=total damage to plant; 0=no damage to plant): 10
  KCHSC damage rating (100=total damage to plant; 0=no damage to plant): 0
  LOLPE damage rating (100=total damage to plant; 0=no damage to plant): 0
  POAAN damage rating (100=total damage to plant; 0=no damage to plant): 0
  POLCO damage rating (100=total damage to plant; 0=no damage to plant): 0
  STEME damage rating (100=total damage to plant; 0=no damage to plant): 0
  VERPE damage rating (100=total damage to plant; 0=no damage to plant): 10
[3]
  ALOMY damage rating (100=total damage to plant; 0=no damage to plant): 0
  AVEFA damage rating (100=total damage to plant; 0=no damage to plant): 10
  BEAVA damage rating (100=total damage to plant; 0=no damage to plant): 0
  BROTE damage rating (100=total damage to plant; 0=no damage to plant): 10
  BRSNN damage rating (100=total damage to plant; 0=no damage to plant): 10
  CHEAL damage rating (100=total damage to plant; 0=no damage to plant): 0
  GALAP damage rating (100=total damage to plant; 0=no damage to plant): 20
  HORVW damage rating (100=total damage to plant; 0=no damage to plant): 30
  KCHSC damage rating (100=total damage to plant; 0=no damage to plant): 10
  LOLPE damage rating (100=total damage to plant; 0=no damage to plant): 0
  POAAN damage rating (100=total damage to plant; 0=no damage to plant): 10
  POLCO damage rating (100=total damage to plant; 0=no damage to plant): 0
  STEME damage rating (100=total damage to plant; 0=no damage to plant): 10
  VERPE damage rating (100=total damage to plant; 0=no damage to plant): 20
SINAR, "Cereals" Postemergent, Rates 500, evaluated after 15 d
  SINAR damage rating (100=total damage to plant; 0=no damage to plant): 40
Rate 130, evaluated after 15 d
  damage to plant (100=total damage to plant; 0=no damage to plant), ABUTH: 0
  damage to plant (100=total damage to plant; 0=no damage to plant), AMARE: 0
  damage to plant (100=total damage to plant; 0=no damage to plant), BIDPI: 0
Rate 250, evaluated after 15 d
  damage to plant (100=total damage to plant; 0=no damage to plant), ABUTH: 10
  damage to plant (100=total damage to plant; 0=no damage to plant), BIDPI: 0
Rate 500, evaluated after 15 d
  damage to plant (100=total damage to plant; 0=no damage to plant), ABUTH: 20
  damage to plant (100=total damage to plant; 0=no damage to plant), AMARE: 20
  damage to plant (100=total damage to plant; 0=no damage to plant), BIDPI: 0

Reference: patent US20220281848A1, “PYRAZOLE-SUBSTITUTED PYRROLIDINONES AS HERBICIDES” (FMC Corporation, priority 2019, published 2022)
